{
  "source": "patent US6649745B2",
  "about": "(priority 2002, dated 2003)",
  "key": {"immunecompromised mice [1]": {"tested_on": "immunecompromised mice", "assay_type": "in vivo", "conditions": "for DTH mean ± S.E.: n=12"}, "immunecompromised mice [2]": {"tested_on": "immunecompromised mice", "assay_type": "in vivo", "conditions": "for Antibody titer % change compared to control / Antibody titer mean ± S.E.: titre on 5th day; for Antibody titer mean ± S.E.: n=12"}, "[3]": {"conditions": "250 mg/kg p.o., day 0-4, SRBC-sensitized mice"}, "[4]": {"conditions": "2.5 mg/kg p.o., day 0-4, immunecompromised mice, foot thickness on 5th day"}, "[5]": {"conditions": "2.5 mg/kg p.o., day 0-4, immunecompromised mice"}, "[6]": {"conditions": "0.0006 mg/kg p.o., day 0-4, immunecompromised mice, foot thickness on 5th day"}, "[7]": {"conditions": "0.0125 mg/kg p.o., day 0-4, immunecompromised mice, foot thickness on 5th day"}, "[8]": {"conditions": "oral, dose levels 0.0062-0.0125 mg Kg^-1, immunecompromised experimental animals"}, "[9]": {"conditions": "0.0006 mg/kg p.o., day 0-4, immunecompromised mice"}, "[10]": {"conditions": "0.0125 mg/kg p.o., day 0-4, immunecompromised mice"}},
  "note": "Like-named read-outs stand apart in the source and are kept apart here. Marks after values point to notes of the source that are not given here.",
  "data": [
    {"compound": "Cyclodextrin [reference compound]", "values": [
      {"measurement": "DTH mean ± S.E.", "setting": "immunecompromised mice [1]; 250 mg/kg p.o., day 0-4, SRBC challenge in footpad on 4th day, foot thickness on 5th day", "result": "0.45 ± 0.24"},
      {"measurement": "DTH % change compared to control", "setting": "immunecompromised mice [1]; 250 mg/kg p.o., day 0-4, foot thickness on 5th day", "result": "23* %"},
      {"measurement": "Antibody titer % change compared to control", "setting": "immunecompromised mice [2]; [3]", "result": "45* %"},
      {"measurement": "Antibody titer mean ± S.E.", "setting": "immunecompromised mice [2]; [3]", "result": "3.60 ± 0.33"}
    ]},
    {"compound": "c1ccc([C@H]2CN3CCSC3=N2)cc1", "note": "[LEV, Levamisole, reference compound]", "values": [
      {"measurement": "DTH % change compared to control", "setting": "immunecompromised mice [1]; [4]", "result": "140*** %"},
      {"measurement": "DTH mean ± S.E.", "setting": "immunecompromised mice [1]; [4]", "result": "1.08 ± 0.14"},
      {"measurement": "Antibody titer % change compared to control", "setting": "immunecompromised mice [2]; [5]", "result": "89*** %"},
      {"measurement": "Antibody titer mean ± S.E.", "setting": "immunecompromised mice [2]; [5]", "result": "6.80 ± 0.30"}
    ]},
    {"compound": "3-0-[α-L-rhamnopyranosyl-(1→2)-α-L-rhamnopyranosyl-(1→4)-0-β-D-glucopyranosyl]-25(S)-5β-spirostan-3β-ol [AR-Iv]", "values": [
      {"measurement": "DTH % change compared to control", "setting": "immunecompromised mice [1]; [6]", "result": "78*** %"},
      {"measurement": "DTH mean ± S.E.", "setting": "immunecompromised mice [1]; [6]", "result": "0.80 ± 0.14"},
      {"measurement": "DTH % change compared to control", "setting": "immunecompromised mice [1]; [7]", "result": "102*** %"},
      {"measurement": "DTH mean ± S.E.", "setting": "immunecompromised mice [1]; [7]", "result": "0.91 ± 0.42"},
      {"measurement": "enhancement of cell-mediated immune response", "setting": "immunecompromised mice [1]; [8]", "result": "77.77-102.22%"},
      {"measurement": "Antibody titer % change compared to control", "setting": "immunecompromised mice [2]; [9]", "result": "56** %"},
      {"measurement": "Antibody titer mean ± S.E.", "setting": "immunecompromised mice [2]; [9]", "result": "5.60 ± 0.33"},
      {"measurement": "Antibody titer % change compared to control", "setting": "immunecompromised mice [2]; [10]", "result": "78*** %"},
      {"measurement": "Antibody titer mean ± S.E.", "setting": "immunecompromised mice [2]; [10]", "result": "6.41 ± 0.16"},
      {"measurement": "potentiation of antibody synthesis", "setting": "immunecompromised mice [2]; [8]", "result": "55.55-69.44%"}
    ]}
  ]
}
